# Laboratory results reported in publication PMC8222254, “Self-assembly of an anion receptor with metal-dependent kinase inhibition and potent in vitro anti-cancer properties” (Nature Communications, 2021).
# Several values for one entry are separate records, joined by “and”; a condition that tells them apart may be missing. Equal values may be shown once. Read-outs that look alike come from different tables or passages of the source.
# Assays:
# Experiment in all cases: Chemosensitivity, 96 h continuous exposure, MTT assay
# Format in all cases: cell-based, human
# [1] = test system: A549
# Procedure, shortened: (§1)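 Growth inhibition is measured by MTT after cells are dosed for 96 h without washout. The 50% growth-reduction concentration is then interpolated from the curves.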
# [2] = test system: ARPE-19 non-cancer cells
# Procedure, shortened: as §1
# [3] = test system: BxPC3
# Procedure, shortened: as §1
# [4] = test system: DLD-1
# Procedure, shortened: as §1
# [5] = test system: HCT116 p53+/+
# Procedure, shortened: as §1
# [6] = test system: MiaPaCa2
# Procedure, shortened: as §1
# [7] = test system: PSN1
# Procedure, shortened: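 Cells were seeded overnight at 37 °C (2 × 10^3/well; GBM1 at 3 × 10^3/well on poly-L-ornithine/laminin in Neurobasal with hFGF/rhEGF), then exposed to compound concentration ranges for 96 h. Viability was read by MTT (4 h, formazan in DMSO, A540) and IC50 taken from dose–response curves.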
smiles,measurement,setting,value
O=P([O-])([O-])Oc1ccccc1.[Cu+2].[Cu+2].[Cu+2].c1ccc(-c2csc(NCCN(CCNc3nc(-c4ccccn4)cs3)CCNc3nc(-c4ccccn4)cs3)n2)nc1.c1ccc(-c2csc(NCCN(CCNc3nc(-c4ccccn4)cs3)CCNc3nc(-c4ccccn4)cs3)n2)nc1 [[L2Cu3(O3POPh)]4+],IC50,"[1]; A549, mean of replicates, read-out: Mean IC50",1.71 µM
same,IC50,"[1]; A549, read-out: Mean IC50 values",1.71 µM
same,IC50,"[1]; A549, single replicate, read-out: IC50 values for each replicate",1.8 µM and 1.6 µM and 1.72 µM
same,Selectivity index (ARPE19),[1]; IC50 ARPE-19 / IC50 A549,67.55
same,Selectivity index (MCF10A),[1]; IC50 MCF10A / IC50 A549,30.17
same,"Relative potency (+ anion to no anion), Ratio + anion:no anion","[1]; ratio of IC50, A549",7.32
same,"Selectivity indices relative to ARPE-19, Ratio + anion:no anion","[1]; ratio of SI (ARPE-19), A549",0.299
same,"Selectivity indices relative to MCF10A, Ratio + anion:no anion","[1]; ratio of SI (MCF 10A), A549",0.146
same,IC50,"[2]; ARPE-19, mean of replicates, read-out: Mean IC50",115 µM
same,IC50,"[2]; ARPE-19, single replicate, read-out: IC50 values for each replicate",179 µM and 157 µM and 60.7 µM and 64.1 µM
same,IC50,"[2]; ARPE-19 non-cancer, read-out: Mean IC50 values",115 µM
same,"Relative potency (+ anion to no anion), Ratio + anion:no anion","[2]; ratio of IC50, ARPE-19",2.19
same,IC50,"[3]; BXPC3, mean of replicates, read-out: Mean IC50",51.9 µM
same,IC50,"[3]; BXPC3, read-out: Mean IC50 values",39.5 µM
same,IC50,"[3]; BXPC3, single replicate, read-out: IC50 values for each replicate",59.3 µM and 58.6 µM and 40.8 µM and 47.6 µM and 53 µM
same,Selectivity index (ARPE19),[3]; IC50 ARPE-19 / IC50 BXPC3,2.92
same,Selectivity index (MCF10A),[3]; IC50 MCF10A / IC50 BXPC3,1.30
same,"Relative potency (+ anion to no anion), Ratio + anion:no anion","[3]; ratio of IC50, BXPC3",134.82
same,"Selectivity indices relative to ARPE-19, Ratio + anion:no anion","[3]; ratio of SI (ARPE-19), BXPC3",0.016
same,"Selectivity indices relative to MCF10A, Ratio + anion:no anion","[3]; ratio of SI (MCF 10A), BXPC3",0.008
same,IC50,"[4]; DLD-1, mean of replicates, read-out: Mean IC50",0.392 µM
same,IC50,"[4]; DLD-1, read-out: Mean IC50 values",0.392 µM
same,Selectivity index (ARPE19),[4]; IC50 ARPE-19 / IC50 DLD-1,293.98
same,Selectivity index (MCF10A),[4]; IC50 MCF10A / IC50 DLD-1,131.32
same,"Relative potency (+ anion to no anion), Ratio + anion:no anion","[4]; ratio of IC50, DLD-1",2.97
same,"Selectivity indices relative to ARPE-19, Ratio + anion:no anion","[4]; ratio of SI (ARPE-19), DLD-1",0.737
same,"Selectivity indices relative to MCF10A, Ratio + anion:no anion","[4]; ratio of SI (MCF 10A), DLD-1",0.359
same,IC50,"[5]; HCT116 p53+/+, mean of replicates, read-out: Mean IC50",0.167 µM
same,IC50,"[5]; HCT116 p53+/+, read-out: Mean IC50 values",0.167 µM
same,IC50,"[5]; HCT116 p53+/+, single replicate, read-out: IC50 values for each replicate",0.17 µM and 0.167 µM and 0.189 µM and 0.142 µM
same,Selectivity index (ARPE19),[5]; IC50 ARPE-19 / IC50 HCT116 p53+/+,690.06
same,Selectivity index (MCF10A),[5]; IC50 MCF10A / IC50 HCT116 p53+/+,308.25
same,"Relative potency (+ anion to no anion), Ratio + anion:no anion","[5]; ratio of IC50, HCT116 p53+/+",0.34
same,"Selectivity indices relative to ARPE-19, Ratio + anion:no anion","[5]; ratio of SI (ARPE-19), HCT116 p53+/+",6.503
same,"Selectivity indices relative to MCF10A, Ratio + anion:no anion","[5]; ratio of SI (MCF 10A), HCT116 p53+/+",3.168
same,Selectivity index (ARPE19),[6]; IC50 ARPE-19 / IC50 MiaPaCa2,2.44
same,Selectivity index (MCF10A),[6]; IC50 MCF10A / IC50 MiaPaCa2,1.09
same,IC50,"[6]; MiaPaCa2, mean of replicates, read-out: Mean IC50",47.2 µM
same,IC50,"[6]; MiaPaCa2, read-out: Mean IC50 values",47.2 µM
same,IC50,"[6]; MiaPaCa2, single replicate, read-out: IC50 values for each replicate",50.1 µM and 44.3 µM and 47.1 µM
same,"Relative potency (+ anion to no anion), Ratio + anion:no anion","[6]; ratio of IC50, MiaPaCa2",4.00
same,"Selectivity indices relative to ARPE-19, Ratio + anion:no anion","[6]; ratio of SI (ARPE-19), MiaPaCa2",0.548
same,"Selectivity indices relative to MCF10A, Ratio + anion:no anion","[6]; ratio of SI (MCF 10A), MiaPaCa2",0.267
same,Selectivity index (ARPE19),[7]; IC50 ARPE-19 / IC50 PSN1,536.00
same,Selectivity index (MCF10A),[7]; IC50 MCF10A / IC50 PSN1,239.43
same,IC50,"[7]; PSN1, mean of replicates, read-out: Mean IC50",0.215 µM
same,IC50,"[7]; PSN1, read-out: Mean IC50 values",0.215 µM
same,IC50,"[7]; PSN1, single replicate, read-out: IC50 values for each replicate",0.195 µM and 0.219 µM and 0.229 µM
same,"Relative potency (+ anion to no anion), Ratio + anion:no anion","[7]; ratio of IC50, PSN1",0.0333
same,"Selectivity indices relative to ARPE-19, Ratio + anion:no anion","[7]; ratio of SI (ARPE-19), PSN1",65.686
same,"Selectivity indices relative to MCF10A, Ratio + anion:no anion","[7]; ratio of SI (MCF 10A), PSN1",32.009
